Some test systems named below: CCRF-CEM; COLO 205; EKVX; HCC 2998; HOP-62; HT-29; M14; MOLT-4; Malme-3M; NCI-H460; OVCAR-4; OVCAR-5; OVCAR-8; RPMI-8226; SK-MEL-2; SR; SW-620; U-251; UO-31.
Common to all, as to experiment: DTP human tumour cell line panel, 48 h

Data on eleven compounds can be found in ChEMBL document CHEMBL1201862, “PubChem BioAssay data set” (2004).

Each structure is given as a SMILES string.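 Step 1: Grow cells in 96-well plates. Step 2: Expose to compound for 48 hours at 5 concentrations. Step 3: Interpolate endpoints linearly; if unreached, use highest concentration. At the GI50, growth is halved.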 The source made the active and inactive calls. No stated cut-off is given here; in the data, active = GI50 up to about 1.1 µM and inactive = higher.

As a reminder, the GI50 is the concentration at which growth is held to half of that of the control. Take `COC(=O)c1c(C)oc2ccc(OC(C)=O)cc12`: the GI50 in the assay on CCRF-CEM is > 100 µM (inactive); with COLO 205, > 100 µM (inactive); in the assay on EKVX, 54.3 µM (inactive); with HCC 2998 it was 30.5 µM (inactive); in the assay on HOP-62, > 100 µM (inactive); in the assay with HT-29 it was 83 µM (inactive). In addition, the GI50 in the assay with M14, with MOLT-4, with Malme-3M, in the assay with NCI-H460, in the assay with OVCAR-4 and in the assay on OVCAR-5 was > 100 µM (inactive) each time. For the same compound, the GI50 in the assay on OVCAR-8, in the assay with RPMI-8226, with SK-MEL-2, in the assay with SR, with SW-620 and with U-251 was > 100 µM (inactive) in each case. For the same compound, in the assay with UO-31, the GI50 is 33.6 µM (inactive).

In the case of `CC1(Cl)CC2OC3(Br)C=CC(C)(O)C2(CC1Br)C3(C)C` (stereo not given), the GI50 in the assay with CCRF-CEM, in the assay on COLO 205, with EKVX, in the assay with HCC 2998, in the assay with HOP-62 and in the assay with HT-29 was > 100 µM (inactive) each time. The GI50 in the assay with M14, in the assay with MOLT-4, in the assay on Malme-3M, with NCI-H460, in the assay with OVCAR-4 and in the assay with OVCAR-5 was > 100 µM (inactive) each time. For the same compound, the GI50 in the assay with OVCAR-8 is > 100 µM (inactive); in the assay on RPMI-8226 it was > 100 µM (inactive); in the assay on SK-MEL-2 it was > 100 µM (inactive); with SR it was 23.6 µM (inactive); with SW-620, > 100 µM (inactive); in the assay on U-251, > 100 µM (inactive). Besides, the GI50 in the assay on UO-31 is > 100 µM (inactive).

As for `O=C(O)/C=C\C(=O)c1ccc(Cl)cc1`, the GI50 was 20 µM (inactive) with CCRF-CEM; 19.6 µM (inactive) in the assay with COLO 205; > 56.4 µM (inactive) with EKVX; > 100 µM (inactive) with HCC 2998; > 100 µM (inactive) in the assay with HOP-62; 27.2 µM (inactive) in the assay on HT-29. For the same compound, the GI50 is 18.5 µM (inactive) in the assay with M14; 24.7 µM (inactive) with MOLT-4; 18.9 µM (inactive) in the assay on Malme-3M; > 100 µM (inactive) in the assay with NCI-H460; 29.6 µM (inactive) in the assay with OVCAR-4; > 100 µM (inactive) in the assay with OVCAR-5. The GI50 is > 74.6 µM (inactive) in the assay with OVCAR-8; 25.2 µM (inactive) in the assay with RPMI-8226; 28.6 µM (inactive) in the assay with SK-MEL-2; 24.3 µM (inactive) with SR; 24 µM (inactive) in the assay on SW-620; > 56.9 µM (inactive) in the assay on U-251. Also, the GI50 with UO-31 was 33.9 µM (inactive).

For `C=C=C(C(=O)OC)[S+]([O-])c1ccc([N+](=O)[O-])cc1[N+](=O)[O-]` (stereo not given), the GI50 in the assay on CCRF-CEM is 12 µM (inactive); with COLO 205, 23.5 µM (inactive); with EKVX, > 100 µM (inactive); in the assay with HCC 2998 it was 14.7 µM (inactive); with HOP-62, > 45.3 µM (inactive); in the assay on HT-29 it was 26.1 µM (inactive). Besides, the GI50 is 30.7 µM (inactive) in the assay on M14; 20.7 µM (inactive) in the assay on MOLT-4; > 56.1 µM (inactive) in the assay with Malme-3M; > 66.7 µM (inactive) in the assay on NCI-H460; 35.6 µM (inactive) in the assay on OVCAR-4; > 82.4 µM (inactive) in the assay with OVCAR-5. Further, the GI50 in the assay with OVCAR-8 was 25.2 µM (inactive); in the assay on RPMI-8226 it was 21.7 µM (inactive); in the assay with SK-MEL-2, 44.5 µM (inactive); in the assay on SR it was 14.1 µM (inactive); in the assay on SW-620, 14.5 µM (inactive); with U-251, 38.1 µM (inactive). Also, the GI50 in the assay on UO-31 is 43.4 µM (inactive).

Regarding `O=C(c1ccc(Cl)cc1)c1ccc(OCCCOc2ccc(C(=O)c3ccc(Cl)cc3)cc2)cc1`, the GI50 with CCRF-CEM, in the assay with COLO 205, in the assay on EKVX, with HCC 2998, in the assay with HOP-62 and in the assay on HT-29 was > 100 µM (inactive) in each case. In addition, the GI50 with M14, in the assay on MOLT-4, in the assay with Malme-3M, with NCI-H460, in the assay with OVCAR-4 and in the assay with OVCAR-5 was > 100 µM (inactive) throughout. For the same compound, the GI50 in the assay with OVCAR-8, in the assay on RPMI-8226, in the assay on SK-MEL-2, in the assay on SR, with SW-620 and in the assay with U-251 was > 100 µM (inactive) throughout.

In the case of `COCOCCCCCO[Si](C)(C)C(C)(C)C`, the GI50 in the assay on CCRF-CEM is 16.7 µM (inactive); in the assay with COLO 205, 19 µM (inactive); in the assay on EKVX it was 20 µM (inactive); with HCC 2998, 17.7 µM (inactive); with HT-29, 14.4 µM (inactive); in the assay on M14, 19 µM (inactive). For the same compound, the GI50 in the assay on MOLT-4 is 16.1 µM (inactive); with Malme-3M, 18.2 µM (inactive); with NCI-H460, 19.6 µM (inactive); in the assay on OVCAR-5, 16.9 µM (inactive); in the assay with OVCAR-8, 19.5 µM (inactive); in the assay with RPMI-8226 it was 16.5 µM (inactive). In addition, the GI50 in the assay with SK-MEL-2 was 16 µM (inactive); in the assay on SR, 18.2 µM (inactive); in the assay with SW-620 it was 17.3 µM (inactive); with U-251 it was 15.8 µM (inactive); with UO-31, 20.5 µM (inactive).

On to `C#Cc1cccc(N2C(=O)CC(=P(c3ccccc3)(c3ccccc3)c3ccccc3)C2=O)c1`, for which the GI50 is 50.1 µM (inactive) in the assay on CCRF-CEM; 44.9 µM (inactive) in the assay with COLO 205; 44.2 µM (inactive) in the assay with EKVX; 70.8 µM (inactive) with HCC 2998; 67.1 µM (inactive) in the assay on HOP-62; 39.6 µM (inactive) with HT-29. Also, the GI50 in the assay on M14 is 47.6 µM (inactive); in the assay on MOLT-4 it was 51.8 µM (inactive); with Malme-3M, 80 µM (inactive); with NCI-H460, 97.5 µM (inactive); in the assay with OVCAR-4, 69.2 µM (inactive); in the assay on OVCAR-5 it was 57 µM (inactive). The GI50 with OVCAR-8 is > 100 µM (inactive); in the assay with RPMI-8226 it was 6.4 µM (inactive); in the assay on SK-MEL-2, 84.7 µM (inactive); in the assay on SR it was 39.4 µM (inactive); with SW-620 it was 54.6 µM (inactive); in the assay on U-251, 71.8 µM (inactive). In addition, the GI50 in the assay with UO-31 is > 100 µM (inactive).

With `Cc1cc([N+](=O)[O-])c(S(=O)(=O)c2ccccc2)c([N+](=O)[O-])c1`, the GI50 was 3.52 µM (inactive) with CCRF-CEM; 9.51 µM (inactive) with COLO 205; 24.2 µM (inactive) with EKVX; 21.2 µM (inactive) in the assay on HCC 2998; 21.7 µM (inactive) with HOP-62; 7.85 µM (inactive) in the assay with HT-29. Further, the GI50 in the assay on M14 is 5.93 µM (inactive); in the assay on MOLT-4 it was 3.39 µM (inactive); in the assay with Malme-3M it was 13.6 µM (inactive); in the assay on NCI-H460, 13.4 µM (inactive); with OVCAR-4 it was 7.83 µM (inactive); with OVCAR-5 it was 18.6 µM (inactive). The GI50 is 6.9 µM (inactive) in the assay on OVCAR-8; 14.8 µM (inactive) in the assay on RPMI-8226; 20 µM (inactive) in the assay on SK-MEL-2; 4.59 µM (inactive) in the assay on SR; 3.95 µM (inactive) in the assay on SW-620; 13.5 µM (inactive) with U-251. Further, the GI50 in the assay with UO-31 is 16.9 µM (inactive).

`CCn1c(CSc2nc(-c3ccccc3)c(-c3ccccc3)[nH]2)n[nH]c1=S`: the GI50 was > 100 µM (inactive) in the assay with CCRF-CEM; > 100 µM (inactive) with COLO 205; > 100 µM (inactive) in the assay on EKVX; 0.0243 µM (active) with HCC 2998; > 100 µM (inactive) in the assay with HOP-62; > 100 µM (inactive) with HT-29. In addition, the GI50 in the assay on M14, with MOLT-4, in the assay with Malme-3M, with NCI-H460, in the assay on OVCAR-4 and with OVCAR-5 was > 100 µM (inactive) each time. For the same compound, the GI50 with OVCAR-8, with RPMI-8226, with SK-MEL-2, with SR, in the assay on U-251 and with UO-31 was > 100 µM (inactive) in each case.

Turning to `COc1cc(Br)c(/C=N/N=C(\N)NO)cc1OC`, the GI50 with CCRF-CEM was 30.1 µM (inactive); in the assay on COLO 205, 11 µM (inactive); with EKVX, 7.21 µM (inactive); in the assay with HCC 2998, 12.3 µM (inactive); in the assay with HOP-62, 14.1 µM (inactive); in the assay on HT-29, 15 µM (inactive). Moreover, the GI50 in the assay with M14 was 16.4 µM (inactive); in the assay on MOLT-4, 57.1 µM (inactive); with Malme-3M, 21.1 µM (inactive); in the assay on NCI-H460, 5.22 µM (inactive); in the assay with OVCAR-4, 54.5 µM (inactive); in the assay with OVCAR-5, 21.8 µM (inactive). Further, the GI50 in the assay with OVCAR-8 was 15.6 µM (inactive); in the assay on RPMI-8226, > 100 µM (inactive); with SK-MEL-2, 26.1 µM (inactive); in the assay on SR it was 11.8 µM (inactive); in the assay with SW-620 it was 35.1 µM (inactive); in the assay on U-251, 23.4 µM (inactive). Further, in the assay with UO-31, the GI50 is 20.3 µM (inactive).

Consider `CCCCCC(=O)Nc1nc(O)c2[nH]cnc2n1`, for which the GI50 with CCRF-CEM, in the assay with COLO 205, with EKVX, with HCC 2998, in the assay on HOP-62 and with HT-29 was > 100 µM (inactive) in each case. Further, the GI50 in the assay on M14, in the assay with MOLT-4, in the assay with Malme-3M, in the assay with NCI-H460, in the assay with OVCAR-4 and in the assay with OVCAR-5 was > 100 µM (inactive) throughout. The GI50 with OVCAR-8, in the assay on RPMI-8226, in the assay with SK-MEL-2, in the assay on SR, in the assay on SW-620 and in the assay on U-251 was > 100 µM (inactive) throughout. The GI50 in the assay with UO-31 was > 100 µM (inactive).
